# Measured values: the supplement of paper PMC10307832
# How the values were obtained:
# Assay in all cases: relative viability (nuclei count vs DMSO), 5 days (fraction); higher = more cells survive
# NCI-H1793 = system: NCI-H1793
# How it was run: (§1)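 After 5 days of treatment, lung cancer cells in 1536-well plates were fixed and stained in a single step (final 0.05% Triton X-100, 1% formaldehyde, 1 ug/ml Hoechst) and their nuclei counted on 4× images. Treatment had been applied by pin tool the day after seeding as one drug alone or as a fixed anchor-drug dose with five library-drug doses (not always all listed) in √10 steps. Relative viability is the nuclei count of treated wells divided by that of vehicle wells, and values are medians of duplicate plates.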
# SW 900 = system: SW 900
# How it was run: as §1
# LOU-NH91 = system: LOU-NH91
# How it was run: as §1
# 201T = system: 201T
# How it was run: as §1
# NCI-H1563 = system: NCI-H1563
# How it was run: as §1
# HCC-15 = system: HCC-15
# How it was run: as §1
# NCI-H3122 = system: NCI-H3122
# How it was run: as §1
# H3255 = system: H3255
# How it was run: as §1
# NCI-H1734 = system: NCI-H1734
# How it was run: as §1
# NCI-H2347 = system: NCI-H2347
# How it was run: as §1
# COR-L23 = system: COR-L23
# How it was run: as §1
# NCI-H647 = system: NCI-H647
# How it was run: as §1
# NCI-H2405 = system: NCI-H2405
# How it was run: as §1
# EPLC-272H = system: EPLC-272H
# How it was run: as §1
# NCI-H520 = system: NCI-H520
# How it was run: as §1
# UMC-11 = system: UMC-11
# How it was run: as §1
# NCI-H322M = system: NCI-H322M
# How it was run: as §1
# NCI-H1650 = system: NCI-H1650
# How it was run: as §1
# NCI-H441 = system: NCI-H441
# How it was run: as §1
# NCI-H2170 = system: NCI-H2170
# How it was run: as §1
# PC-14 = system: PC-14
# How it was run: as §1
# NCI-H2023 = system: NCI-H2023
# How it was run: as §1
smiles,measurement,setting,value
Nc1ccn([C@@H]2O[C@H](CO)[C@@H](O)[C@@H]2O)c(=O)n1 [Cytarabine] + COc1cccc2cc(-c3nc([C@H]4CC[C@H](C(=O)O)CC4)n4ncnc(N)c34)[nH]c12 [OSI-027] (partner 0.5 µM),relative viability,NCI-H1793; first compound 0.005 µM,0.296
same,relative viability,NCI-H1793; first compound 0.01581 µM,0.285
same,relative viability,NCI-H1793; first compound 0.05 µM,0.245
same,relative viability,NCI-H1793; first compound 0.1581 µM,0.198
same,relative viability,NCI-H1793; first compound 0.5 µM,0.197
same,relative viability,SW 900; first compound 0.005 µM,0.396
same,relative viability,SW 900; first compound 0.01581 µM,0.34
same,relative viability,SW 900; first compound 0.05 µM,0.335
same,relative viability,SW 900; first compound 0.1581 µM,0.145
same,relative viability,SW 900; first compound 0.5 µM,0.136
same,relative viability,LOU-NH91; first compound 0.005 µM,0.664
same,relative viability,LOU-NH91; first compound 0.01581 µM,0.739
same,relative viability,LOU-NH91; first compound 0.05 µM,0.597
same,relative viability,LOU-NH91; first compound 0.1581 µM,0.486
same,relative viability,LOU-NH91; first compound 0.5 µM,0.585
same,relative viability,201T; first compound 0.005 µM,0.711
same,relative viability,201T; first compound 0.01581 µM,0.782
same,relative viability,201T; first compound 0.05 µM,0.562
same,relative viability,201T; first compound 0.1581 µM,0.382
same,relative viability,201T; first compound 0.5 µM,0.272
same,relative viability,NCI-H1563; first compound 0.005 µM,0.691
same,relative viability,NCI-H1563; first compound 0.01581 µM,0.797
same,relative viability,NCI-H1563; first compound 0.05 µM,0.773
same,relative viability,NCI-H1563; first compound 0.1581 µM,0.583
same,relative viability,NCI-H1563; first compound 0.5 µM,0.628
same,relative viability,HCC-15; first compound 0.005 µM,0.597
same,relative viability,HCC-15; first compound 0.01581 µM,0.67
same,relative viability,HCC-15; first compound 0.05 µM,0.669
same,relative viability,HCC-15; first compound 0.1581 µM,0.56
same,relative viability,HCC-15; first compound 0.5 µM,0.412
same,relative viability,NCI-H3122; first compound 0.005 µM,0.953
same,relative viability,NCI-H3122; first compound 0.01581 µM,0.873
same,relative viability,NCI-H3122; first compound 0.05 µM,0.811
same,relative viability,NCI-H3122; first compound 0.1581 µM,0.461
same,relative viability,NCI-H3122; first compound 0.5 µM,0.125
same,relative viability,H3255; first compound 0.005 µM,0.521
same,relative viability,H3255; first compound 0.01581 µM,0.579
same,relative viability,H3255; first compound 0.05 µM,0.53
same,relative viability,H3255; first compound 0.1581 µM,0.429
same,relative viability,H3255; first compound 0.5 µM,0.453
same,relative viability,NCI-H1734; first compound 0.005 µM,0.355
same,relative viability,NCI-H1734; first compound 0.01581 µM,0.285
same,relative viability,NCI-H1734; first compound 0.05 µM,0.222
same,relative viability,NCI-H1734; first compound 0.1581 µM,0.133
same,relative viability,NCI-H1734; first compound 0.5 µM,0.13
same,relative viability,NCI-H2347; first compound 0.005 µM,0.401
same,relative viability,NCI-H2347; first compound 0.01581 µM,0.282
same,relative viability,NCI-H2347; first compound 0.05 µM,0.336
same,relative viability,NCI-H2347; first compound 0.1581 µM,0.268
same,relative viability,NCI-H2347; first compound 0.5 µM,0.327
same,relative viability,COR-L23; first compound 0.005 µM,0.396
same,relative viability,COR-L23; first compound 0.01581 µM,0.546
same,relative viability,COR-L23; first compound 0.05 µM,0.546
same,relative viability,COR-L23; first compound 0.1581 µM,0.16
same,relative viability,COR-L23; first compound 0.5 µM,0.116
same,relative viability,NCI-H647; first compound 0.005 µM,0.479
same,relative viability,NCI-H647; first compound 0.01581 µM,0.33
same,relative viability,NCI-H647; first compound 0.05 µM,0.271
same,relative viability,NCI-H647; first compound 0.1581 µM,0.105
same,relative viability,NCI-H647; first compound 0.5 µM,0.0867
same,relative viability,NCI-H2405; first compound 0.005 µM,0.62
same,relative viability,NCI-H2405; first compound 0.01581 µM,0.558
same,relative viability,NCI-H2405; first compound 0.05 µM,0.434
same,relative viability,NCI-H2405; first compound 0.1581 µM,0.394
same,relative viability,NCI-H2405; first compound 0.5 µM,0.325
same,relative viability,EPLC-272H; first compound 0.005 µM,0.268
same,relative viability,EPLC-272H; first compound 0.01581 µM,0.28
same,relative viability,EPLC-272H; first compound 0.05 µM,0.214
same,relative viability,EPLC-272H; first compound 0.1581 µM,0.189
same,relative viability,EPLC-272H; first compound 0.5 µM,0.182
same,relative viability,NCI-H520; first compound 0.005 µM,0.25
same,relative viability,NCI-H520; first compound 0.01581 µM,0.262
same,relative viability,NCI-H520; first compound 0.05 µM,0.33
same,relative viability,NCI-H520; first compound 0.1581 µM,0.212
same,relative viability,NCI-H520; first compound 0.5 µM,0.16
same,relative viability,UMC-11; first compound 0.005 µM,0.314
same,relative viability,UMC-11; first compound 0.01581 µM,0.418
same,relative viability,UMC-11; first compound 0.05 µM,0.386
same,relative viability,UMC-11; first compound 0.1581 µM,0.226
same,relative viability,UMC-11; first compound 0.5 µM,0.226
same,relative viability,NCI-H322M; first compound 0.005 µM,0.455
same,relative viability,NCI-H322M; first compound 0.01581 µM,0.392
same,relative viability,NCI-H322M; first compound 0.05 µM,0.325
same,relative viability,NCI-H322M; first compound 0.1581 µM,0.377
same,relative viability,NCI-H322M; first compound 0.5 µM,0.269
same,relative viability,NCI-H1650; first compound 0.005 µM,0.44
same,relative viability,NCI-H1650; first compound 0.01581 µM,0.507
same,relative viability,NCI-H1650; first compound 0.05 µM,0.354
same,relative viability,NCI-H1650; first compound 0.1581 µM,0.311
same,relative viability,NCI-H1650; first compound 0.5 µM,0.259
same,relative viability,NCI-H441; first compound 0.005 µM,0.629
same,relative viability,NCI-H441; first compound 0.01581 µM,0.638
same,relative viability,NCI-H441; first compound 0.05 µM,0.617
same,relative viability,NCI-H441; first compound 0.1581 µM,0.422
same,relative viability,NCI-H441; first compound 0.5 µM,0.291
same,relative viability,NCI-H2170; first compound 0.005 µM,0.543
same,relative viability,NCI-H2170; first compound 0.01581 µM,0.513
same,relative viability,NCI-H2170; first compound 0.05 µM,0.387
same,relative viability,NCI-H2170; first compound 0.1581 µM,0.303
same,relative viability,NCI-H2170; first compound 0.5 µM,0.208
same,relative viability,PC-14; first compound 0.005 µM,0.691
same,relative viability,PC-14; first compound 0.01581 µM,0.455
same,relative viability,PC-14; first compound 0.05 µM,0.71
same,relative viability,PC-14; first compound 0.1581 µM,0.166
same,relative viability,PC-14; first compound 0.5 µM,0.115
same,relative viability,NCI-H2023; first compound 0.005 µM,0.212
same,relative viability,NCI-H2023; first compound 0.01581 µM,0.152
same,relative viability,NCI-H2023; first compound 0.05 µM,0.107
same,relative viability,NCI-H2023; first compound 0.1581 µM,0.104
same,relative viability,NCI-H2023; first compound 0.5 µM,0.102
